From PubChem BioAssay AID1745844 (Carcinogenic Potency Database (CPDB), 2022)
Where “and” joins values, the source holds several entries; their conditions need not be identical. Equal entries are not always repeated. Calls of active or inactive are those of the source. How the calls were made is not given here.

Test system: rodent lifetime carcinogenesis bioassay, tumor incidence TD50
Test: carcinogenic potency in animals, long-term in vivo studies, CPDB compilation (AID 1745844)

How did the carcinogen call (mouse, strain B6C3F1, females, by gavage, site: any site (literature study), lesion: several types, types named in the paper, dosed 103 weeks, study length 104 weeks) turn out when `CC(O)c1ccccc1` (stereo not given) was run?
Its carcinogen call is “negative (inactive)”.

And the TD50 (mouse, strain B6C3F1, males, by gavage, site: any site (literature study), lesion: several types, types named in the paper, dosed 103 weeks, study length 104 weeks)?
The TD50 was 2230 mg/kg/day (inactive).

And the TD50 (rat, strain Fischer 344, females, by gavage, site: any site (literature study), lesion: several types, types named in the paper, dosed 103 weeks, study length 104 weeks)?
The TD50 was 826 mg/kg/day.

And the TD50 (rat, strain Fischer 344, females, by gavage, site: liver, lesion: hepatocellular adenoma + hepatocellular carcinoma + neoplastic nodule, dosed 103 weeks, study length 104 weeks)?
Its TD50 is 8630 mg/kg/day.

What about the TD50 (rat, strain Fischer 344, females, by gavage, site: pancreatic islets, lesion: islet-cell adenoma, dosed 103 weeks, study length 104 weeks) of the same molecule?
Its TD50 is 2300 mg/kg/day (inactive).

And the TD50 (rat, strain Fischer 344, males, by gavage, site: adrenal medulla, lesion: pheochromocytoma + pheochromocytoma, malignant, dosed 103 weeks, study length 104 weeks)?
Its TD50 is 135 mg/kg/day.

And the TD50 (rat, strain Fischer 344, males, by gavage, site: any site (literature study), lesion: several types, types named in the paper, dosed 103 weeks, study length 104 weeks)?
The TD50 was 88.6 mg/kg/day.

And the TD50 (rat, strain Fischer 344, males, by gavage, site: kidney, lesion: tubular-cell adenoma + tubular-cell adenocarcinoma, dosed 103 weeks, study length 104 weeks)?
Its TD50 is 458 mg/kg/day and 944 mg/kg/day.

What about the TD50 (rat, strain Fischer 344, males, by gavage, site: kidney, lesion: tubular-cell adenoma, dosed 103 weeks, study length 104 weeks) of the same molecule?
Its TD50 is 984 mg/kg/day and 564 mg/kg/day.

And the TD50 (rat, strain Fischer 344, males, by gavage, site: liver, lesion: hepatocellular adenoma + hepatocellular carcinoma + neoplastic nodule, dosed 103 weeks, study length 104 weeks)?
The TD50 was 4800 mg/kg/day.

What about the TD50 (rat, strain Fischer 344, males, by gavage, site: lung, lesion: alveolar/bronchiolar adenoma + alveolar/bronchiolar carcinoma, dosed 103 weeks, study length 104 weeks) of the same molecule?
The TD50 was 1050 mg/kg/day.

And the TD50 (rat, strain Fischer 344, males, by gavage, site: preputial gland, lesion: carcinoma, NOS, dosed 103 weeks, study length 104 weeks)?
Its TD50 is 1270 mg/kg/day.

And the TD50 (rat, strain Fischer 344, males, by gavage, site: testis, lesion: interstitial-cell tumor, dosed 103 weeks, study length 104 weeks)?
The TD50 was 51.5 mg/kg/day.

For `CC(Oc1cc(Cl)c(Cl)cc1Cl)C(=O)O` (stereo not given), which carcinogen call (mouse, strain B6AKF1, females, oral dosing, site: any site (literature study), lesion: several types, types named in the paper, dosed 76 weeks, study length 76 weeks) is on record?
The carcinogen call was “negative (inactive)”.

And the carcinogen call (mouse, strain B6AKF1, females, oral dosing, site: liver, lesion: hepatoma, dosed 76 weeks, study length 76 weeks)?
The carcinogen call was “negative (inactive)”.

What about the carcinogen call (mouse, strain B6AKF1, females, oral dosing, site: lung, lesion: adenoma, dosed 76 weeks, study length 76 weeks) of the same molecule?
Its carcinogen call is “negative (inactive)”.

What about the carcinogen call (mouse, strain B6AKF1, males, oral dosing, site: any site (literature study), lesion: several types, types named in the paper, dosed 76 weeks, study length 76 weeks) of the same molecule?
Its carcinogen call is “negative (inactive)”.

And the carcinogen call (mouse, strain B6AKF1, males, oral dosing, site: liver, lesion: hepatoma, dosed 76 weeks, study length 76 weeks)?
The carcinogen call was “negative (inactive)”.

What about the carcinogen call (mouse, strain B6AKF1, males, oral dosing, site: lung, lesion: adenoma, dosed 76 weeks, study length 76 weeks) of the same molecule?
Its carcinogen call is “negative (inactive)”.

What about the TD50 (mouse, strain B6C3F1, females, oral dosing, site: any site (literature study), lesion: several types, types named in the paper, dosed 76 weeks, study length 76 weeks) of the same molecule?
The TD50 was 52.6 mg/kg/day (inactive).

What about the carcinogen call (mouse, strain B6C3F1, females, oral dosing, site: liver, lesion: hepatoma, dosed 76 weeks, study length 76 weeks) of the same molecule?
Its carcinogen call is “negative (inactive)”.

What about the carcinogen call (mouse, strain B6C3F1, females, oral dosing, site: lung, lesion: several types, types named in the paper, dosed 76 weeks, study length 76 weeks) of the same molecule?
The carcinogen call was “negative (inactive)”.

And the TD50 (mouse, strain B6C3F1, males, oral dosing, site: any site (literature study), lesion: several types, types named in the paper, dosed 76 weeks, study length 76 weeks)?
Its TD50 is 9.07 mg/kg/day (inactive).

And the TD50 (mouse, strain B6C3F1, males, oral dosing, site: liver, lesion: hepatoma, dosed 76 weeks, study length 76 weeks)?
Its TD50 is 16.6 mg/kg/day (inactive).

What about the TD50 (mouse, strain B6C3F1, males, oral dosing, site: lung, lesion: adenoma, dosed 76 weeks, study length 76 weeks) of the same molecule?
The TD50 was 95.2 mg/kg/day (inactive).

With `ClC1(Cl)C2(Cl)C3C4(Cl)C1(Cl)C1(Cl)C4(Cl)C(Cl)(Cl)C3(Cl)C21Cl` (stereo not given) as the molecule, how does the TD50 (rat, strain Sprague-Dawley, males, in feed, site: liver, lesion: neoplastic nodule, dosed 91 weeks, study length 91 weeks) read?
The TD50 was 6.68 mg/kg/day.

And the TD50 (rat, strain Sprague-Dawley, males, in feed, site: thyroid gland, lesion: adenoma, dosed 91 weeks, study length 91 weeks)?
Its TD50 is 1.46 mg/kg/day.

How did the TD50 (mouse, strain B6C3F1, females, in feed, site: any site (literature study), lesion: several types, types named in the paper, dosed 78 weeks, study length 95 weeks) turn out when `Nc1ccc(Cl)c(N)c1` was run?
The TD50 was 15400 mg/kg/day.

And the TD50 (mouse, strain B6C3F1, females, in feed, site: liver, lesion: hepatocellular adenoma + hepatocellular carcinoma + neoplastic nodule, dosed 78 weeks, study length 95 weeks)?
Its TD50 is 1230 mg/kg/day.

And the TD50 (mouse, strain B6C3F1, females, in feed, site: liver, lesion: hepatocellular adenoma + hepatocellular carcinoma, dosed 78 weeks, study length 95 weeks)?
Its TD50 is 1230 mg/kg/day.

What about the TD50 (mouse, strain B6C3F1, females, in feed, site: liver, lesion: hepatocellular carcinoma, dosed 78 weeks, study length 95 weeks) of the same molecule?
Its TD50 is 1780 mg/kg/day.

And the TD50 (mouse, strain B6C3F1, males, in feed, site: any site (literature study), lesion: several types, types named in the paper, dosed 78 weeks, study length 94 weeks)?
The TD50 was 7320 mg/kg/day (inactive).

And the TD50 (mouse, strain B6C3F1, males, in feed, site: liver, lesion: hepatocellular adenoma + hepatocellular carcinoma + neoplastic nodule, dosed 78 weeks, study length 94 weeks)?
Its TD50 is 7050 mg/kg/day.

What about the TD50 (rat, strain Fischer 344, females, in feed, site: any site (literature study), lesion: several types, types named in the paper, dosed 78 weeks, study length 104 weeks) of the same molecule?
Its TD50 is 479 mg/kg/day.

And the TD50 (rat, strain Fischer 344, females, in feed, site: liver, lesion: hepatocellular adenoma + hepatocellular carcinoma + neoplastic nodule, dosed 78 weeks, study length 104 weeks)?
The TD50 was 2680 mg/kg/day.

And the TD50 (rat, strain Fischer 344, females, in feed, site: uterus, lesion: endometrial stromal polyp, dosed 78 weeks, study length 104 weeks)?
Its TD50 is 175 mg/kg/day (inactive).

What about the TD50 (rat, strain Fischer 344, males, in feed, site: adrenal gland, lesion: pheochromocytoma, dosed 78 weeks, study length 104 weeks) of the same molecule?
Its TD50 is 315 mg/kg/day.

What about the TD50 (rat, strain Fischer 344, males, in feed, site: any site (literature study), lesion: several types, types named in the paper, dosed 78 weeks, study length 104 weeks) of the same molecule?
The TD50 was 422 mg/kg/day.

And the TD50 (rat, strain Fischer 344, males, in feed, site: liver, lesion: hepatocellular adenoma + hepatocellular carcinoma + neoplastic nodule, dosed 78 weeks, study length 104 weeks)?
Its TD50 is 1570 mg/kg/day.

How did the TD50 (mouse, strain ICR, females, in feed, site: liver, lesion: hepatocellular adenoma, dosed 78 weeks, study length 78 weeks) turn out when `CCn1cc(C(=O)O)c(=O)c2cc3c(cc21)OCO3` was run?
Its TD50 is 572 mg/kg/day.

What about the TD50 (mouse, strain ICR, females, in feed, site: lung, lesion: adenoma, dosed 78 weeks, study length 78 weeks) of the same molecule?
The TD50 was 55.1 mg/kg/day.

What about the TD50 (rat, strain Wistar, females, in feed, site: any site (literature study), lesion: benign tumor, dosed 104 weeks, study length 104 weeks) of the same molecule?
The TD50 was 589 mg/kg/day.

What about the TD50 (rat, strain Wistar, females, in feed, site: any site (literature study), lesion: malignant tumor, dosed 104 weeks, study length 104 weeks) of the same molecule?
Its TD50 is 1040 mg/kg/day.

And the TD50 (rat, strain Wistar, females, in feed, site: any site (literature study), lesion: several types, types named in the paper, dosed 104 weeks, study length 104 weeks)?
The TD50 was 68.5 mg/kg/day.

What about the TD50 (rat, strain Wistar, females, in feed, site: liver, lesion: hepatocellular carcinoma, dosed 104 weeks, study length 104 weeks) of the same molecule?
The TD50 was 2440 mg/kg/day.

And the TD50 (rat, strain Wistar, males, in feed, site: any site (literature study), lesion: malignant tumor, dosed 104 weeks, study length 104 weeks)?
Its TD50 is 1790 mg/kg/day.

What about the TD50 (rat, strain Wistar, males, in feed, site: testis, lesion: Leydig-cell adenoma, dosed 104 weeks, study length 104 weeks) of the same molecule?
Its TD50 is 167 mg/kg/day.

How did the TD50 (rat, strain Fischer 344, males, in feed, site: liver, lesion: hepatoma, dosed 72 weeks, study length 93 weeks) turn out when `Cc1ccccc1N=O` was run?
Its TD50 is 59.2 mg/kg/day.

What about the TD50 (rat, strain Fischer 344, males, in feed, site: liver, lesion: several types, types named in the paper, dosed 72 weeks, study length 93 weeks) of the same molecule?
The TD50 was 50.7 mg/kg/day.

And the TD50 (rat, strain Fischer 344, males, in feed, site: peritoneal cavity, lesion: mesothelioma, dosed 72 weeks, study length 93 weeks)?
The TD50 was 195 mg/kg/day.

And the TD50 (rat, strain Fischer 344, males, in feed, site: peritoneal cavity, lesion: spindle-cell sarcoma, dosed 72 weeks, study length 93 weeks)?
Its TD50 is 303 mg/kg/day.

And the TD50 (rat, strain Fischer 344, males, in feed, site: skin, lesion: fibroma, dosed 72 weeks, study length 93 weeks)?
The TD50 was 55.8 mg/kg/day.

What about the TD50 (rat, strain Fischer 344, males, in feed, site: spleen, lesion: fibroma, dosed 72 weeks, study length 93 weeks) of the same molecule?
Its TD50 is 87 mg/kg/day.

And the TD50 (rat, strain Fischer 344, males, in feed, site: urinary bladder, lesion: papilloma, dosed 72 weeks, study length 93 weeks)?
The TD50 was 78.8 mg/kg/day.

And the TD50 (rat, strain Fischer 344, males, in feed, site: urinary bladder, lesion: several types, types named in the paper, dosed 72 weeks, study length 93 weeks)?
Its TD50 is 71.5 mg/kg/day.
